In brackets after ≈: the same amount, converted by molar mass. Read-outs that look alike come from different tables or passages of the source.
What was measured:
[1] = test system: A549 human lung cancer cell line; test: MTT cell viability assay, A549; type: cell-based; conditions: 48 h treatment, n = 3
Procedure: (§1) Cytotoxicity of the metabolites and substrate were evaluated in various cancer cell lines (pancreatic: PANC-1, MIA PaCa-2; prostate: DU 145 and lung: A549) and two healthy cell lines (lung: MRC-5 and kidney: HEK-293) by MTT cell viability assay (Table 3).
(§2) To see cytotoxic effects of the obtained metabolites, a standard MTT (3-(4,5-dimethylthiazol-2-yl)-2,5-diphenyltetrazolium bromide) cell viability assay was performed on human cancer cell lines PANC-1 (pancreatic, ATCC® CRL-1469™), MIA PaCa-2 (pancreatic, ATCC® CRL-1420™), DU 145 (prostate, ATCC® HTB-81™) and A549 (lung, ATCC® CCL-185™) and two healthy cell lines MRC-5 (lung, ATCC® CCL-171™) and HEK-293 (kidney, ATCC® CRL-1573™) according to manufacturer’s instructions (M2128, Sigma-Aldrich®). For this purpose, cells at 80–90% confluency were seeded to 96-well plates as 5-10x10^3 cells/well in Eagle Minimal Essential Medium (EMEM) or Dulbecco Modified Eagle Medium (DMEM); supplemented with 10% FBS and 1% L-glutamine depending on the cell type and incubated in a humidified incubator at 37 °C with 5% CO2 atmosphere for 24 h. After cell adhesion, gitoxigenin and the metabolites were applied to the cells in triplicate with concentrations ranging between 0.001 and 10 µM. After 48 h exposure to certain concentrations of the compounds, medium was replaced with fresh one containing 10% MTT and plates were incubated for 3 h in the dark for the conversion of tetrazolium salts to formazan crystals by mitochondrial metabolism of viable cells. After incubation, formazan crystals were dissolved in DMSO and absorbance of each well were measured at 570 nm via microplate reader (Synergy™ HTX- BioTek, Winooski, VT, USA). Doxorubicin (10 nM, 1 µM and 4 µM) was used as positive control, whereas oleandrin (1 nM, 10 nM and 100 nM) was the second positive control as a potent cardenolide.
(§3) All compounds were dissolved in DMSO (Sigma Aldrich, St. Louis, MO, USA) and the final DMSO concentration applied to cells was 0.02% (v/v), which is non-toxic to cells. The IC50 values of the compounds were calculated by the normalization of optical densities (OD) to negative control DMSO (0.02%, v/v).

[2] = test system: DU 145 human prostate cancer cell line; test: MTT cell viability assay, DU 145; type: cell-based; conditions: 48 h treatment, n = 3
Procedure: as §1, §2, §3

[3] = test system: PANC-1 human pancreatic cancer cell line; test: MTT cell viability assay, PANC-1; type: cell-based; conditions: 48 h treatment, n = 3
Procedure: as §1, §2, §3

[4] = test system: Mia PaCa-2 pancreatic cancer cell line; test: MTT cell viability assay, MIA PaCa-2; type: cell-based; conditions: Homo sapiens, 48 h treatment, n = 3
Procedure: as §1, §2, §3

[5] = test system: HEK-293 human embryonic kidney cell line; test: MTT cell viability assay, HEK-293 (healthy); type: cell-based; conditions: for IC50: Homo sapiens, HEK293, healthy cell line, 48 h treatment, MTT, n = 3
Procedure: as §1, §2, §3

[6] = test system: MRC-5 human lung fibroblast cell line; test: MTT cell viability assay, MRC-5 (healthy); type: cell-based; conditions: MRC5, 48 h treatment, n = 3
Procedure: as §1, §2, §3

[7] = test system: A549, DU 145, PANC-1, MIA PaCa-2 cell lines; test: MTT cell viability assay, four cancer cell lines together; type: cell-based; conditions: Homo sapiens; range over four cancer cell lines; read-out: IC50 values ranging over A549, DU 145, PANC-1, MIA PaCa-2 cell lines
Procedure: as §1
To see cytotoxic effects of the obtained metabolites, a standard MTT (3-(4,5-dimethylthiazol-2-yl)-2,5-diphenyltetrazolium bromide) cell viability assay was performed on human cancer cell lines PANC-1 (pancreatic, ATCC® CRL-1469™), MIA PaCa-2 (pancreatic, ATCC® CRL-1420™), DU 145 (prostate, ATCC® HTB-81™) and A549 (lung, ATCC® CCL-185™) and two healthy cell lines MRC-5 (lung, ATCC® CCL-171™) and HEK-293 (kidney, ATCC® CRL-1573™) according to manufacturer’s instructions (M2128, Sigma-Aldrich®). […] After incubation, formazan crystals were dissolved in DMSO and absorbance of each well were measured at 570 nm via microplate reader (Synergy™ HTX- BioTek, Winooski, VT, USA). […]
as §3

dengue virus = test system: dengue virus; design: method as in PMID 22155902; conditions: immunofluorescence screen, hit criteria ≥40% inhibition; cited from earlier work
HeLa cells [8] = test system: HeLa cells; design: method as in PMID 12054363; conditions: homogeneous plate-reader assay; read-out: EC50 anticancer effect against HeLa cells; cited from earlier work
[9] = test system: TK-10 (renal adenocarcinoma); design: method as in PMID 14531018; conditions: cited from earlier work
UACC-62 (melanoma) = test system: UACC-62 (melanoma); design: method as in PMID 14531018; conditions: cited from earlier work
[10] = test system: MCF-7 (breast adenocarcinoma); design: method as in PMID 14531018; conditions: cited from earlier work
HeLa cells [11] = test system: HeLa cells; design: method as in PMID 5589524; conditions: cited from earlier work
[12] = test system: human nasopharynx carcinoma; design: method as in PMID 5014314; conditions: cited from earlier work
[13] = test system: infectious virus production (COVID-19); design: method as in doi:10.1101/2020.07.15.203489; conditions: in vitro, cited from earlier work

SMILES	IC50 [1] [µM]	IC50 [2] [µM]	IC50 [3] [µM]	IC50 [4] [µM]	IC50 [5] [µM]	IC50 [6] [µM]	toxicity on healthy cell line HEK-293 ([5]; up to concentration of 10 µM)	IC50 [7] [µM]	inhibition of dengue virus (dengue virus) [%]	EC50 (HeLa cells [8]) [µM]	IC50 [9] [µM]	IC50 (UACC-62 (melanoma)) [µM]	IC50 [10] [µM]	growth inhibitory effect on HeLa cells (HeLa cells [11]) [µg/mL]	ED50 in vitro inhibitory activity against human nasopharynx carcinoma [12] [µg/mL]	reduction in infectious virus production ([13]; 0.05 µg/mL) [fold]	reduction in infectious virus production ([13]; 0.1 µg/mL) [fold]
C[C@]12CCC(=O)C[C@H]1CC(O)C1C2CC[C@]2(C)[C@@H](C3=CC(=O)OC3)[C@@H](O)C[C@]12O (stereo partly drawn) [Compound 1, 4-((5R,10S,13R,14S,16S,17R)-7,14,16-Trihydroxy-10,13-dimethyl-3-oxohexadecahydro-1H-cyclopenta[a]phenanthren-17-yl)furan-2(5H)-one]	> 10	> 10	> 10	> 10	> 10	> 10	–	–	–	–	–	–	–	–	–	–	–
C[C@]12CCC(=O)C[C@H]1CCC1C2CC[C@]2(C)[C@@H](C3=CC(=O)OC3)[C@@H](O)C[C@]12O (stereo partly drawn) [Compound 2, 4-((5R,10S,13R,14S,16S,17R)-14,16-Dihydroxy-10,13-dimethyl-3-oxohexadecahydro-1H-cyclopenta[a]phenanthren-17-yl)furan-2(5H)-one]	> 10	> 10	> 10	> 10	> 10	> 10	–	–	–	–	–	–	–	–	–	–	–
C[C@]12CCC(=O)C[C@H]1CC(O)C1C2CC(O)[C@]2(C)[C@@H](C3=CC(=O)OC3)[C@@H](O)C[C@]12O (stereo partly drawn) [Compound 3, 4-((5R,10S,13S,14S,16S,17R)-7,12,14,16-Tetrahydroxy-10,13-dimethyl-3-oxohexadecahydro-1H-cyclopenta[a]phenanthren-17-yl)furan-2(5H)-one]	> 10	> 10	> 10	> 10	> 10	> 10	–	–	–	–	–	–	–	–	–	–	–
COC1(OC)CC[C@]2(C)C3CC[C@]4(C)[C@@H](C5=CC(=O)OC5)[C@@H](O)C[C@]4(O)C3C(O)C[C@@H]2C1 (stereo partly drawn) [Compound 4, 4-((5R,10S,13R,14S,16S,17R)-7,14,16-Trihydroxy-3,3-dimethoxy-10,13-dimethylhexadecahydro-1H-cyclopenta[a]phenanthren-17-yl)furan-2(5H)-one]	> 10	> 10	> 10	> 10	> 10	> 10	–	–	–	–	–	–	–	–	–	–	–
C[C@]12CC[C@@H](O)C[C@H]1CCC1C2CC[C@]2(C)[C@@H](C3=CC(=O)OC3)[C@@H](O)C[C@]12O (stereo partly drawn) [Compound 5, 4-((3R,5R,10S,13R,14S,16S,17R)-3,14,16-Trihydroxy-10,13-dimethylhexadecahydro-1H-cyclopenta[a]phenanthren-17-yl)furan-2(5H)-one]	> 10	> 10	> 10	> 10	> 10	> 10	–	–	–	–	–	–	–	–	–	–	–
C[C@]12CC[C@@H](O)C[C@H]1CC(O)C1C2CC[C@]2(C)[C@@H](C3=CC(=O)OC3)[C@@H](O)C[C@]12O (stereo partly drawn) [Compound 6, 4-((3R,5S,10S,13R,14S,16S,17R)-3,7,14,16-Tetrahydroxy-10,13-dimethylhexadecahydro-1H-cyclopenta[a]phenanthren-17-yl)furan-2(5H)-one]	> 10	> 10	> 10	> 10	> 10	> 10	–	–	–	–	–	–	–	–	–	–	–
C[C@]12CCC(=O)C[C@H]1CCC1C2CC(O)[C@]2(C)[C@@H](C3=CC(=O)OC3)[C@@H](O)C[C@]12O (stereo partly drawn) [Compound 7, 4-((5R,10S,13S,14S,16S,17R)-12,14,16-Trihydroxy-10,13-dimethyl-3-oxohexadecahydro-1H-cyclopenta[a]phenanthren-17-yl)furan-2(5H)-one]	> 10	> 10	6.24	> 10	> 10	> 10	–	–	–	–	–	–	–	–	–	–	–
C[C@]12CC[C@@H](O)C[C@H]1CCC1C2CC(O)[C@]2(C)[C@@H](C3=CC(=O)OC3)[C@@H](O)C[C@]12O (stereo partly drawn) [Compound 8, 4-((3R,5R,10S,13S,14S,16S,17R)-3,12,14,16-Tetrahydroxy-10,13-dimethylhexadecahydro-1H-cyclopenta[a]phenanthren-17-yl)furan-2(5H)-one]	8.25	> 10	1.95	3.4	> 10	9.35	without causing toxicity	–	–	–	–	–	–	–	–	–	–
COc1cccc2c1C(=O)c1c(O)c3c(c(O)c1C2=O)C[C@@](O)(C(=O)CO)C[C@@H]3O[C@H]1C[C@H](N)[C@H](O)[C@H](C)O1 [Doxorubicin, reference compound]	0.62	0.19	> 10	0.59	0.587	0.865	–	–	–	–	–	–	–	–	–	–	–
C[C@]12CC[C@H](O)C[C@H]1CCC1C2CC[C@]2(C)[C@@H](C3=CC(=O)OC3)[C@@H](O)C[C@]12O (stereo partly drawn) [Gitoxigenin, 4-((3S,5R,10S,13R,14S,16S,17R)-3,14,16-Trihydroxy-10,13-dimethylhexadecahydro-1H-cyclopenta[a]phenanthren-17-yl) furan-2(5H)-one]	2.19	4.08	1.53	3.1	7.6	0.815	–	1.53 to 4.08	49.01	2.1	0.415 ± 0.03	2.83 ± 0.17	1.8 ± 0.32	2.25	2.3 (≈ 5.89 µM)	–	–
CO[C@H]1C[C@H](O[C@H]2CC[C@@]3(C)[C@H](CC[C@@H]4[C@@H]3CC[C@]3(C)[C@@H](C5=CC(=O)OC5)[C@@H](OC(C)=O)C[C@]43O)C2)O[C@@H](C)[C@@H]1O [Oleandrin, reference compound]	0.0426	0.021	0.0387	0.035	0.073	0.0173	–	–	–	–	–	–	–	–	–	78	100

Source: article PMC8161373, “New Cardenolides from Biotransformation of Gitoxigenin by the Endophytic Fungus Alternaria eureka 1E1BL1: Characterization and Cytotoxic Activities” (Molecules, 2021)
